Laboratory results from a melting point compilation (Tetko et al.; mined from patent text by program, amines drawn as free bases though some values may be those of a salt).

`Cc1cc(C)c(Nc2nc(N(C)C)ncc2S(=O)(=O)c2cccc(OCc3ccccc3)c2)c(C)c1` showed a melting point of 52 to 58 °C. In the case of `O=C1CCC(=NNc2ccc(I)cc2)c2ncccc2N1`, the melting point is reported as 204 to 205 °C. In the case of `Clc1ccc(-c2ccc(Cl)nc2)cc1`, the melting point is reported as 113 to 115 °C. For `OCCCCCCCCCCCOc1ccc(O)cc1`, the melting point was 99 to 100 °C. Work on `O=C(O)Cc1cccc2c(=O)cc(-c3c(F)c(F)c(F)c(F)c3F)oc12` yielded a melting point of 156 to 160 °C. Work on `CCn1nc(-c2ccccc2)c(C(C)=O)c(Nc2cccc3cn[nH]c23)c1=O` yielded a melting point of 263 to 264 °C. With `O=[N+]([O-])c1ccc(-n2ccnc2SCc2ccccc2N2CCOCC2)nc1` the melting point was 199 to 202 °C. For `C#CCn1ccc(C(=O)OC)c1C=NO`, the melting point was 88 to 90 °C. Compound `NN(c1ccccc1)C1CCS(=O)(=O)C1` (stereo not given) has a melting point of 120 to 121 °C. `CCOC(=O)c1c(N2CCN(C(=O)c3cccs3)CC2)c2cccnc2n(CCN(C)C)c1=O` gave a melting point of 134 °C. In the case of `COc1ccc(COc2nc(C3CC3)c3cc(-c4cccc(Cl)c4)ccc3n2)cc1`, the melting point is reported as 158 to 159 °C. `CSc1ccc(-c2c(Cl)nc(Cl)nc2-c2ccccc2)cc1` gave a melting point of 88 to 90 °C. Compound `CC(C)(C)C1=NN(c2ccc(C(=O)O)cc2)C(c2ccc(Cl)cc2)C1` (stereo not given) has a melting point of 208 °C. Compound `O=C(O)C1CSCCC12OCCO2` (stereo not given) has a melting point of 99 to 101 °C. `CCCCCCc1ccc2c(c1)NC(NC(C)C)=NS2(=O)=O` showed a melting point of 319 to 321 °C. Compound `CC(C)(C)c1ccccc1NC(=O)OCC1(COC(=O)Nc2ccccc2C(C)(C)C)CSc2ccccc2C1=O` has a melting point of 62 to 68 °C. With `Clc1ncc(-c2ccccc2)o1` the melting point was 34 °C. Work on `CCOC(=O)Cc1cccc(S(=O)(=O)c2ccccc2)c1[N+](=O)[O-]` yielded a melting point of 105 to 106 °C. In the case of `Cc1ccnc(NC(c2ccc(C(F)(F)F)cc2)c2ccc3cccnc3c2O)c1` (stereo not given), the melting point is reported as 104 to 107 °C. Work on `Cn1nc2c(N)nc3ccccc3c2c1CCCCNS(C)(=O)=O` yielded a melting point of 188 to 189 °C. Work on `CCCCCCCCCCCc1ccc(CC(=O)O)cc1` yielded a melting point of 83 to 84 °C. `c1ccc(-c2ncn(C3CCCCO3)c2-c2ccccc2)cc1` (stereo not given) gave a melting point of 104 to 105 °C. In the case of `COc1cccc(Oc2cccnc2C(=O)NCCNC(=O)OC(C)(C)C)c1`, the melting point is reported as 81 to 82 °C. `N/C(=C1/Sc2ccccc2C1=O)c1ccccc1C(F)(F)F` showed a melting point of 148 to 149 °C. `CCOC(=O)c1cc(C)c(Cl)nc1Nc1ccccc1F` gave a melting point of 122 to 126 °C. `CN(C(=O)COc1ccccc1)c1ccc(OC23CC4CC(CC(C4)C2)C3)cc1` gave a melting point of 89 to 91 °C. `CCS(=O)(=O)C(NC(C)=O)C(=O)NCc1ccccc1` (stereo not given) showed a melting point of 161 to 163 °C. Work on `CC(C)=C1OC(=O)N(c2ccc(C)cc2)C1=O` yielded a melting point of 136 °C. In the case of `O=c1[nH]c2ncc(-c3ccc4[nH]ccc4c3)nc2n1CC1CCOCC1`, the melting point is reported as 305 to 308 °C. For `O=c1ccc(S(=O)(=O)n2cccc2)n[nH]1`, the melting point was 140 to 145 °C. With `Cc1ccc2c(c1)cc(C(=O)OCc1ccccc1)n2CC(=O)OC(C)(C)C` the melting point was 80 to 82 °C. In the case of `CC(C)(C)OC(=O)c1cc(Br)cc([N+](=O)[O-])c1`, the melting point is reported as 77 to 78 °C. Work on `CCCCNC(=O)NS(=O)(=O)c1ccccc1S(=O)(=O)N(C)C(F)(F)C(F)F` yielded a melting point of 146 to 152 °C. Compound `CC(C)C[C@H](NC(=O)OC(C)(C)C)[C@@H](O)CC(=O)NN1CCN(c2cccc(C(F)(F)F)c2)CC1` has a melting point of 107 to 109 °C. `CNC(=O)N(N)c1nnc(C(F)(F)F)s1` gave a melting point of 181 to 182 °C. Work on `COc1ccccc1N1CCN(CCCCN(C(N)=O)C(C)(C)C)CC1` yielded a melting point of 167 to 169 °C. With `C[C@H](c1ccccc1)n1c(O)nc2c(N)nc3ccccc3c21` the melting point was greater than 250 °C. `COC(=O)CCCc1ccc(C(=O)CCCc2ccccc2)cc1` showed a melting point of 61 to 62 °C. `Oc1c2c(nn1-c1ccccn1)CCc1cc(Br)ccc1-2` showed a melting point of 164 to 165 °C. `FC(F)(F)c1cccnc1N1CCN(c2nc3ccc(Cl)cc3[nH]2)CC1` showed a melting point of 228 to 231 °C. Work on `C#CCN1CCC[C@H](NCc2ccccc2OC)[C@@H]1c1ccccc1` (relative stereo) yielded a melting point of 147 to 149 °C. For `CCOC(=O)NS(=O)(=O)c1ccc2c(c1)CCN(C(=O)N(C)C)CC2`, the melting point was 140 to 141 °C. Compound `CC(C)(C)c1cc(CCc2ccccc2NC(=O)NCCCC2CCCCC2)cc(C(C)(C)C)c1O` has a melting point of 166 °C. `CCCc1nn(-c2ccc(C(F)(F)F)cn2)cc1CCCOc1cccc(CCC(=O)O)c1` showed a melting point of 97 to 98 °C. With `COC[C@@H](O)[C@@H](O)[C@H](OC)[C@@H](O)C=O` the melting point was 113 to 115 °C. Work on `N#Cc1ccn(O)c1-c1ccc(Cl)cc1` yielded a melting point of 148 to 150 °C. `COc1cc(F)c(C(=O)Oc2ccc(C(=O)O)cc2)cc1C12CC3CC(CC(C3)C1)C2` showed a melting point of 268 to 270 °C. `CC(c1cc2ccccc2s1)N(OC(=O)OC(C)(C)C)C(N)=O` (stereo not given) showed a melting point of 120 to 122 °C. Work on `COCN1C(C)=C(C(=O)OC)C(c2ccccc2C(F)(F)F)C(C(=O)OCOC(=O)C(C)(C)C)=C1C` (single isomer, unassigned; (+)) yielded a melting point of 110 to 112 °C. Work on `CCOc1cc(C)c(NCCO)cc1[N+](=O)[O-]` yielded a melting point of 119 °C.
